# Test results as given in article PMC8954547, “Nonpeptidic Z360-Analogs Tagged with Trivalent Radiometals as Anti-CCK2R Cancer Theranostic Agents: A Preclinical Study” (Pharmaceutics, 2022).
# How the values were obtained:
# [1] = test system: HEK293-CCK2i4svR and wtHEK293 xenografts; assay: SPECT/CT of HEK293-CCK2i4svR and wtHEK293 xenografts; format: in vivo, mice; conditions: 4 h and 24 h pi
# Method: For SPECT/CT imaging, six mice bearing twin HEK293-CCK2i4svR and wtHEK293 tumors were injected in the tail vein with a bolus containing [^111In]In-GAS1/2/3 (100 μL, 9–12 MBq associated with 3 nmol total injected analog in-vehicle: saline/EtOH 9/1 v/v). Mice were euthanized at 4 h and 24 h pi. Tomographic SPECT/CT imaging was performed with the y-CUBE/x-CUBE systems (Molecubes, Belgium). The SPECT system is based on monolithic NaI detectors attached to SiPMs, with a 0.6 mm intrinsic resolution. The CT system is based on a structured CMOS detector of CsI with pixels of 75 µm and operates between 35–80 kVp, 10–500 µA tube current, with a 33 µm fixed focal spot size. SPECT scans were acquired 4 h pi and 24 h pi, with a 40–50 min duration protocol based on the injected activity, and each SPECT scan was succeeded by a CT scan, following General-Purpose protocol under 50 kVp, for co-registration purposes. SPECT images were reconstructed using the MLEM reconstruction method with a 250 µm voxel size and 500 iterations. CT images were reconstructed using the ISRA reconstruction method with a 100 µm voxel size.
# Images were exported and post-processed on VivoQuant software, version 4.0 (Invicro, Boston). A smoothing median filter (0.6 mm, spherical window) was applied to the images, and the bladder was removed for consistency purposes. Normalization of images was performed (i.e., all images having the same color scale range values) to achieve a direct visual comparison between the different groups.
# [2] = test system: SCID mice bearing twin HEK293-CCK2i4svR and wtHEK293 tumors; assay: Biodistribution in SCID mice bearing twin HEK293-CCK2i4svR and wtHEK293 xenografts; format: in vivo
# Summary of the method: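 Uptake is expressed as %IA/g (mean ± SD, n = 4) from gamma counting of blood, organs and tumours collected at set times: 1, 4 and 24 h pi for ^67Ga, 4 and 24 h for ^111In (±gelofusine), 4–96 h for ^177Lu. Radioligands were given iv at 7–40 pmol to SCID mice bearing twin CCK2i4svR-transfected and wild-type HEK293 xenografts.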
# [3] = Radioligand stability in mice (radio-HPLC of blood and urine); format: in vivo; conditions: mean ± SD
# Summary of the method: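 Male Swiss albino mice (n=3) given 2.5–3 nmol radioligand i.v. via tail vein in saline/EtOH 9/1. Blood at 5 min and urine at 30 min pi, EDTA-treated on ice, MeCN-deproteinised, analysed by radio-RP-HPLC; value is mean percent intact radioligand ± SD.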
# [4] = 4 h + Gelo (Gelofusine-treated mice)
# [5] = 24 h + Gelo (Gelofusine-treated mice)
structure (smiles),measurement,setting,value
CC(C)(C)C(=O)CN1C(=O)[C@H](NC(=O)Nc2cccc(C(=O)NCCOCCOCCOCCNC(=O)[C@H](CCC(=O)O)NC(=O)CN3CCN(CC(=O)[O-])CCN(CC(=O)[O-])CCN(CC(=O)[O-])CC3)c2)CN(C2CCCCC2)c2ccccc21.[111In+3] (stereo in doubt) [[^111In]In-GAS1],SPECT/CT uptake in CCK2i4svR expressing tumors,[1],Intense uptake
same,SPECT/CT uptake in wtHEK293 tumors devoid of CCK2i4svR expression,[1],no uptake is evident
same,"Biodistribution, Blood",[2]; [4],2.75 ± 0.48 %IA/g
same,"Biodistribution, CCK2i4svR(+) Tumor",[2]; [4],19.17 ± 2.06 %IA/g
same,"Biodistribution, CCK2i4svR(-) Tumor",[2]; [4],0.86 ± 0.15 %IA/g
same,"Biodistribution, Femur",[2]; [4],0.65 ± 0.15 %IA/g
same,"Biodistribution, Heart",[2]; [4],0.92 ± 0.16 %IA/g
same,"Biodistribution, Intestines",[2]; [4],1.87 ± 0.08 %IA/g
same,"Biodistribution, Kidneys",[2]; [4],5.93 ± 0.56 %IA/g
same,"Biodistribution, Liver",[2]; [4],6.34 ± 0.86 %IA/g
same,"Biodistribution, Muscle",[2]; [4],0.28 ± 0.06 %IA/g
same,"Biodistribution, Pancreas",[2]; [4],1.47 ± 0.26 %IA/g
same,"Biodistribution, Spleen",[2]; [4],1.13 ± 0.28 %IA/g
same,"Biodistribution, Stomach",[2]; [4],0.77 ± 0.14 %IA/g
same,"Biodistribution, Blood",[2]; 4 h pi,3.51 ± 0.56 %IA/g
same,"Biodistribution, CCK2i4svR(+) Tumor",[2]; 4 h pi,17.79 ± 1.73 %IA/g
same,"Biodistribution, CCK2i4svR(-) Tumor",[2]; 4 h pi,0.73 ± 0.05 %IA/g
same,"Biodistribution, Femur",[2]; 4 h pi,0.77 ± 0.13 %IA/g
same,"Biodistribution, Heart",[2]; 4 h pi,1.10 ± 0.19 %IA/g
same,"Biodistribution, Intestines",[2]; 4 h pi,3.37 ± 0.89 %IA/g
same,"Biodistribution, Kidneys",[2]; 4 h pi,6.06 ± 1.24 %IA/g
same,"Biodistribution, Liver",[2]; 4 h pi,7.69 ± 1.00 %IA/g
same,"Biodistribution, Lungs",[2]; 4 h pi,2.23 ± 0.39 %IA/g
same,"Biodistribution, Muscle",[2]; 4 h pi,0.26 ± 0.04 %IA/g
same,"Biodistribution, Pancreas",[2]; 4 h pi,1.49 ± 0.19 %IA/g
same,"Biodistribution, Spleen",[2]; 4 h pi,1.56 ± 0.22 %IA/g
same,"Biodistribution, Stomach",[2]; 4 h pi,0.98 ± 0.21 %IA/g
same,"Biodistribution, Blood",[2]; [5],0.07 ± 0.01 %IA/g
same,"Biodistribution, CCK2i4svR(+) Tumor",[2]; [5],4.51 ± 0.55 %IA/g
same,"Biodistribution, CCK2i4svR(-) Tumor",[2]; [5],0.23 ± 0.04 %IA/g
same,"Biodistribution, Femur",[2]; [5],0.16 ± 0.01 %IA/g
same,"Biodistribution, Heart",[2]; [5],0.15 ± 0.02 %IA/g
same,"Biodistribution, Intestines",[2]; [5],0.49 ± 0.13 %IA/g
same,"Biodistribution, Kidneys",[2]; [5],1.69 ± 0.13 %IA/g
same,"Biodistribution, Liver",[2]; [5],1.30 ± 0.15 %IA/g
same,"Biodistribution, Lungs",[2]; [5],0.39 ± 0.03 %IA/g
same,"Biodistribution, Muscle",[2]; [5],0.06± 0.01 %IA/g
same,"Biodistribution, Pancreas",[2]; [5],0.14 ± 0.01 %IA/g
same,"Biodistribution, Spleen",[2]; [5],0.48 ± 0.08 %IA/g
same,"Biodistribution, Stomach",[2]; [5],0.25 ± 0.04 %IA/g
same,"Biodistribution, Blood",[2]; 24 h pi,0.08 ± 0.01 %IA/g
same,"Biodistribution, CCK2i4svR(+) Tumor",[2]; 24 h pi,5.40 ± 1.13 %IA/g
same,"Biodistribution, CCK2i4svR(-) Tumor",[2]; 24 h pi,0.27 ± 0.10 %IA/g
same,"Biodistribution, Femur",[2]; 24 h pi,0.16 ± 0.03 %IA/g
same,"Biodistribution, Heart",[2]; 24 h pi,0.15 ± 0.03 %IA/g
same,"Biodistribution, Intestines",[2]; 24 h pi,0.59 ± 0.11 %IA/g
same,"Biodistribution, Kidneys",[2]; 24 h pi,1.84 ± 0.38 %IA/g
same,"Biodistribution, Liver",[2]; 24 h pi,2.27 ± 0.30 %IA/g
same,"Biodistribution, Lungs",[2]; 24 h pi,0.36 ± 0.05 %IA/g
same,"Biodistribution, Muscle",[2]; 24 h pi,0.06± 0.00 %IA/g
same,"Biodistribution, Pancreas",[2]; 24 h pi,0.18 ± 0.03 %IA/g
same,"Biodistribution, Spleen",[2]; 24 h pi,0.64 ± 0.12 %IA/g
same,"Biodistribution, Stomach",[2]; 24 h pi,0.21 ± 0.05 %IA/g
same,Intact radioligand in blood,[3]; mice blood collected 5 min pi,84.6 ± 2.4 (3) %
same,Intact radioligand in urine,[3]; mice urine collected 30 min pi,85.2 ± 5.2 (3) %
